Reference: patent publication US20100273694A1, “SURFACTANT COMPOSITION METHOD FOR PRODUCTION THEREOF AND COSMETIC COMPRISING SAID COMPOSITION” (EIFFAGE TRAVAUX PUBLICS, priority 2004, published 2010)

Assay: Measurement of surface tension and critical micellar concentrations (rising drop tensiometer)
Type: physicochemical
Settings: rising drop method; for CMC: critical micellar concentration; for γcmc: surface tension at the CMC
Protocol: The tensiometric measurements were carried out with a drop tensiometer operating by the method of the rising drop ([…] tensiometer, I.T. CONCEPT).

Question: Which CMC does the source give for “9-octadecenyl betaine mesylate [Esters C18:1]” here?
Answer: Its CMC is 1.10^−4 M.

Question: What about the γcmc of the same compound?
Answer: Its γcmc is 36.6 mN/m.

Question: What does the source list for `CCCCCCCCCCCCOS(=O)(=O)[O-].[Na+]` [SDS (C12), sodium dodecyl sulphate, reference compound]?
Answer: CMC: 0.008 M; γcmc: 30.0 mN/m

Question: What does the source list for “betainylaminooctadecane mesylate [Amides C18:0]”?
Answer: CMC: 0.00014 M; γcmc: 36.0 mN/m

Question: What does the source list for “betainylaminooctadecenyl mesylate [Amides C18:1]”?
Answer: CMC: 0.00012 M; γcmc: 36.2 mN/m

Question: With “octadecyl betaine mesylate [Esters C18:0]” as the compound, how does the CMC read?
Answer: The CMC was 8.10^−4 M.

Question: What about the γcmc of the same compound?
Answer: The γcmc was 37.2 mN/m.
